Experimental data: patent publication US20130287890A1, “INHIBITOR OF THE PRODUCTION OF ADVANCED GLYCATION END PRODUCTS” (UENO FINE CHEMICALS INDUSTRY, LTD., priority 2012, published 2013)

Legend:
3-DG = assay: Quantitative determination of 3-DG (HPLC) after reaction of amino acid or biological protein with carbohydrates at 37° C. for 42 days; format: biochemical; conditions: for 3-DG: 37° C., 42 days
Protocol: (§1) Amino acid or biological protein, carbohydrates and a phosphate buffer solution were charged in a 50 mL polypropylene centrifuge tube in each amount shown in Table 8, followed by sealing and stirring, and then the mixture was reacted in an incubator at 37° C. for 42 days. Next, the reactant was fractionated by centrifugation at 3,000 rpm for 3 hours using an ultrafiltration unit (VIVA SPIN 20, manufactured by Sartorius Corporation). The obtained low molecular weight fraction was used as a sample for determination of 3-DG, while the obtained high molecular weight fraction was used as a sample for the determination of fluorescent AGEs. Amino acid, biological protein and carbohydrates used are as follows:
In the same manner as in Test Example 1, except that the low molecular weight fraction prepared as mentioned above was used as a sample, quantitative determination of 3-DG was performed. In the same manner as in Test Example 2, except that the high molecular weight fraction prepared as mentioned above was used as a sample, determination of fluorescent AGEs was performed.
(§2) Amino acid, carbohydrates and a phosphate buffer solution were charged in a 50 mL polypropylene centrifuge tube in each amount shown in Table 10, followed by sealing and stirring, and then the mixture was reacted in an incubator at 37° C. for 42 days. Next, the reactant was filtered through a 0.2 μm filter and the obtained filtrate was used as a sample. Amino acid and carbohydrates used are as follows:
To 2 mL of a sample, the same amount of a 60% perchloric acid solution was added to deproteinize the sample. The sample was neutralized with 4 mL of an aqueous saturated sodium hydrogen carbonate solution and 0.8 mL of a 0.1% methanol solution of 2,3-diaminonaphthalene was added, and then the mixture was reacted at 4° C. for 16 hours. Next, the reactant was extracted with 4.4 mL of ethyl acetate, concentrated to dryness using an evaporator, dissolved in 5 mL of methanol, and then filtered through a 0.45 μm filter. The filtrate was subjected to high-performance liquid chromatography and 3-DG was quantitatively determined under the following measurement conditions.
Injection amount: 20 μL Column: TSK-GEL, ODS-80Ts (4.6×150 mm, manufactured by TOSOH CORPORATION) Column temperature: 30° C. Mobile phase: 50 mM phosphoric acid:methanol:acetonitrile=7:1.5:1.5 Flow rate: 1 mL/min.
as §1, with “Biological proteins,” for “Amino acid or biological protein,”, “are” for “were”, “12,” for “8,”, “AGEs, pentosidine, CML, RAGE agonist activity and RAGE antagonist activity. Biological proteins” for “AGEs. Amino acid, biological protein”
(§3) In the same manner as in Test Example 4, except that the low molecular weight fraction prepared as mentioned above was used as a sample, quantitative determination of 3-DG was performed. In the same manner as in Test Example 4, except that the high molecular weight fraction was filtered through a 0.2 μm filter and the filtrate was used as a sample, fluorescent AGEs, pentosidine, CML, RAGE agonist activity and RAGE antagonist activity were evaluated.
Collagen, carbohydrates and a phosphate buffer solution were charged in a 50 mL polypropylene centrifuge tube in each amount shown in Table 14, followed by sealing and stirring, and then the mixture was reacted in an incubator at 37° C. for 42 days. Next, the reactant was fractionated by centrifugation at 3,000 rpm for 3 hours using an ultrafiltration unit (VIVA SPIN 20, manufactured by Sartorius Corporation). […]

human RAGE = target: T1, human RAGE (Homo sapiens, UniProt Q15109); assay: RAGE agonist activity of reaction samples (37° C., 42 days), NF-κB luciferase assay in C6 glioma cells; format: cell-based, rat
T1 construct: human RAGE plasmid (including full-length human RAGE cDNA); expressed in transfected cells; host or cells: C6 glioma cells carrying pNF-κB-Luc plasmid and human RAGE plasmid
Protocol: as §2
Using Luciferase Assay System (manufactured by Promega Corporation), evaluation of RAGE agonist activity was performed. (Day 1) According to the methods disclosed in Diabetes, 2006, vol. 55, pp. 2510-2522, C6 glioma cells into which pNF-κB-Luc plasmid (manufactured by Stratagene Corporation) and human RAGE plasmid (including full-length human RAGE cDNA) have been introduced were seeded at 100 μL/well into a 96-well plate and cultured in a CO2 incubator until the cells were confluent. For the culture, 10% FBS/DMEM medium was used. (Day 2) The medium was removed, and after wells were washed with 300 μL of serum-free DMEM medium, 100 μL of 0.1% FBS/DMEM medium was slowly added. Then, the medium was incubated overnight in a CO2 incubator. (Day 3) The sample was diluted using the medium, and 50 μL of the diluted sample was added to each well. AGE-BSA in which AGE was formed with glyceraldehydes (50 μg/mL) was added to a control well. After incubation in a CO2 incubator for 4 hours, the medium was removed and wells were washed 2 times with 300 μL of PBS (−). Then, 25 μL of 1× lysis buffer was added on ice. After the plate was shaken for 15 seconds, 20 μL of lysate was charged in a new white plate. Further 100 μL of a luciferase assay reagent was added, and a […] was measured by a luminometer. Using 5 μl of lysate, quantitative determination of protein was also performed.
as §1, with “Biological proteins,” for “Amino acid or biological protein,”, “are” for “were”, “12,” for “8,”, “AGEs, pentosidine, CML, RAGE agonist activity and RAGE antagonist activity. Biological proteins” for “AGEs. Amino acid, biological protein”
as §3
Collagen, carbohydrates and a phosphate buffer solution were charged in a 50 mL polypropylene centrifuge tube in each amount shown in Table 14, followed by sealing and stirring, and then the mixture was reacted in an incubator at 37° C. for 42 days. Next, the reactant was fractionated by centrifugation at 3,000 rpm for 3 hours using an ultrafiltration unit (VIVA SPIN 20, manufactured by Sartorius Corporation). The obtained low molecular weight fraction was used as a sample for determination of 3-DG. Meanwhile, 0.4 g of a high molecular weight fraction and 8 mL of 6N hydrochloric acid were charged in an ampule and the air in the ampule was replaced with nitrogen, and then hydrolysis was performed at 110° C. for 16 hours in a heat block. After reaction, 8 mL of 5N sodium hydroxide was added, and pH was adjusted using 1N hydrochloric acid and 1N sodium hydroxide to make pH within a range of 7.2 to 7.6. Then, the solution was filtered through a 0.2 μm filter. […]

[1] = Test Example 3, amino acid (lysine:arginine 1:1) 0.4 g + glucose 1.8 g or maltitol 3.4 g
[2] = Test Example 3, bovine serum albumin 0.4 g + glucose 1.8 g or maltitol 3.4 g
[3] = Test Example 4, amino acid 0.4 g + carbohydrate 1.8 g
[4] = Test Example 5, bovine serum albumin 0.4 g + carbohydrate 1.8 g
[5] = Test Example 5, human serum albumin 0.4 g + carbohydrate 1.8 g
[6] = Test Example 5, γ-globulin 0.4 g + carbohydrate 1.8 g
[7] = Test Example 6, collagen 0.015 g + carbohydrate 1.8 g
[8] = Test Example 4, amino acid + carbohydrate, amount of protein 100 μg/mL, relative to control (AGE-BSA) = 1
[9] = Test Example 5, bovine serum albumin + carbohydrate, protein 100 μg/mL, relative to control (AGE-BSA) = 1
[10] = Test Example 5, human serum albumin + carbohydrate, protein 100 μg/mL, relative to control (AGE-BSA) = 1
[11] = Test Example 5, γ-globulin + carbohydrate, protein 10 μg/mL, relative to control (AGE-BSA) = 1
[12] = Test Example 6, collagen + carbohydrate, protein 10 μg/mL, relative to control (AGE-BSA) = 1
[13] = Test Example 5, bovine serum albumin, human serum albumin, γ-globulin, compared with sections containing fructose
[14] = Test Example 5, bovine serum albumin, human serum albumin, γ-globulin, compared with sections containing glucose
[15] = Test Example 6, collagen, compared with sections containing glucose and fructose

T1 sequence (Q15109 23-404): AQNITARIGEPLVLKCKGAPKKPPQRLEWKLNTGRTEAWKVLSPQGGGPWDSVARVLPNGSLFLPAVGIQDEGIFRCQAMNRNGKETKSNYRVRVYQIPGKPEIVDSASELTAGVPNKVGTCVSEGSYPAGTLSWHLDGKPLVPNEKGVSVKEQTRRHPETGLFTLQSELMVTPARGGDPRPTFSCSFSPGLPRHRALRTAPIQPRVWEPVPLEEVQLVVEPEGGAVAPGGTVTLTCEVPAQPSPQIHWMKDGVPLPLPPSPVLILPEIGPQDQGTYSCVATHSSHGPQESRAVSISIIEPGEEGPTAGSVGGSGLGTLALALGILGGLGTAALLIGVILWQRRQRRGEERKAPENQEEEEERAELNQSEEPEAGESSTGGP

RAGE agonist activity (human RAGE; [8])	RAGE agonist activity (human RAGE; [9])	RAGE agonist activity (human RAGE; [10])	RAGE agonist activity (human RAGE; [11])	RAGE agonist activity (human RAGE; [12])	SMILES	3-DG (3-DG; [1])	3-DG (3-DG; [2])	3-DG (3-DG; [3])	3-DG (3-DG; [4])	3-DG (3-DG; [5])	3-DG (3-DG; [6])	3-DG (3-DG; [7])	further results
0.06	0.37	0.01	0.06	0.45	O=C[C@H](O)[C@@H](O)[C@H](O)[C@H](O)CO [Glucose]	22,761 nmol/1 g of protein	29,938 nmol/1 g of protein	8310 nmol/1 mL of reaction solution	10253 nmol/1 mL of reaction solution	2575 nmol/1 mL of reaction solution	877 nmol/1 mL of reaction solution	232 nmol/1 mL of reaction solution	–
–	–	–	–	–	OC[C@@H](O)[C@@H](O[C@H]1O[C@H](CO)[C@@H](O)[C@H](O)[C@H]1O)[C@H](O)[C@@H](O)CO [Maltitol]	127 nmol/1 g of protein	1,181 nmol/1 g of protein	–	–	–	–	–	production of 3-DG (3-DG; Test Example 3, amino acids and bovine serum albumin, compared with sections containing glucose): significantly decreased
0.07	0.24	0.02	0.06	0.27	OC[C@@H](O)[C@@H](O)[C@H](O)[C@@H](O)CO [Sorbitol]	–	–	13 nmol/1 mL of reaction solution	33 nmol/1 mL of reaction solution	78 nmol/1 mL of reaction solution	21 nmol/1 mL of reaction solution	24 nmol/1 mL of reaction solution	production of 3-DG (3-DG; Test Example 4, amino acid, compared with sections containing glucose and fructose): significantly decreased; production of 3-DG (3-DG; [13]): significantly decreased; production of 3-DG (3-DG; [14]): decreased; production of 3-DG (3-DG; [15]): significantly decreased; RAGE agonist activity (human RAGE; Test Example 4, amino acid, compared with the test section 2 containing fructose): decreased; RAGE agonist activity (human RAGE; [13]): decreased; RAGE agonist activity (human RAGE; [14]): decreased; RAGE agonist activity (human RAGE; [15]): decreased

SMILES	RAGE agonist activity (human RAGE; [8])	RAGE agonist activity (human RAGE; [9])	RAGE agonist activity (human RAGE; [10])	RAGE agonist activity (human RAGE; [11])	RAGE agonist activity (human RAGE; [12])	3-DG (3-DG; [1])	3-DG (3-DG; [2])	3-DG (3-DG; [3])	3-DG (3-DG; [4])	3-DG (3-DG; [5])	3-DG (3-DG; [6])	3-DG (3-DG; [7])	further results
O=C(CO)[C@@H](O)[C@H](O)[C@H](O)CO [Fructose]	0.08	0.33	0.02	0.04	0.58	–	–	904 nmol/1 mL of reaction solution	5316 nmol/1 mL of reaction solution	2358 nmol/1 mL of reaction solution	877 nmol/1 mL of reaction solution	1447 nmol/1 mL of reaction solution	–
